Results as given in ChEMBL document CHEMBL1201862, “PubChem BioAssay data set” (2004).
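Step 1: Grow cells in 96-well plates. Step 2: Expose to compound for 48 hours at 5 concentrations. Step 3: Interpolate endpoints linearly; if unreached, use highest concentration. GI50: concentration for 50% inhibition of growth.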 Activity calls are given as the source filed them. Cut-off read from the data, not from the text of the source: active = GI50 up to about 1.1 µM and inactive = higher.

Experiments:
Test in all cases: NCI-60 cell line screen, 48 h
CCRF-CEM = system: CCRF-CEM
NCI/ADR-RES = system: NCI/ADR-RES
SN12C = system: SN12C
HCT-15 = system: HCT-15
OVCAR-8 = system: OVCAR-8
BT-549 = system: BT-549
SK-MEL-5 = system: SK-MEL-5
K562 = system: K562
SF-268 = system: SF-268
A549 = system: A549
T47D = system: T47D
TK-10 = system: TK-10
HOP-92 = system: HOP-92
MDA-MB-435 = system: MDA-MB-435
SW-620 = system: SW-620
IGROV-1 = system: IGROV-1
MOLT-4 = system: MOLT-4
NCI-H522 = system: NCI-H522
SK-MEL-2 = system: SK-MEL-2

| SMILES | GI50 (CCRF-CEM) | GI50 (NCI/ADR-RES) | GI50 (SN12C) | GI50 (HCT-15) [µM] | GI50 (OVCAR-8) | GI50 (BT-549) | GI50 (SK-MEL-5) | GI50 (K562) | GI50 (SF-268) | GI50 (A549) | GI50 (T47D) | GI50 (TK-10) | GI50 (HOP-92) | GI50 (MDA-MB-435) | GI50 (SW-620) | GI50 (IGROV-1) | GI50 (MOLT-4) | GI50 (NCI-H522) | GI50 (SK-MEL-2) |
| --- | --- | --- | --- | --- | --- | --- | --- | --- | --- | --- | --- | --- | --- | --- | --- | --- | --- | --- | --- |
| COc1ccc(-c2[nH]c(-c3ccc(OC)cc3)c(-c3ccccn3)c2-c2ccccn2)cc1 | 35.2 µM (inactive) | 39.5 µM (inactive) | 52.2 µM (inactive) | 26.1 | 50 µM (inactive) | 36.2 µM (inactive) | 18.3 µM (inactive) | 25.5 µM (inactive) | > 100 µM (inactive) | 40.8 µM (inactive) | 31.5 µM (inactive) | > 100 µM (inactive) | > 100 µM (inactive) | 21.7 µM (inactive) | 36 µM (inactive) | 71.8 µM (inactive) | 34.7 µM (inactive) | – | – |
| COc1ccc2oc(OC)c(CC=C(C)C)c(=O)c2c1C | > 100 µM (inactive) | > 100 µM (inactive) | > 100 µM (inactive) | > 100 | > 100 µM (inactive) | > 100 µM (inactive) | > 100 µM (inactive) | > 100 µM (inactive) | > 100 µM (inactive) | > 100 µM (inactive) | > 100 µM (inactive) | > 100 µM (inactive) | – | > 100 µM (inactive) | > 100 µM (inactive) | > 100 µM (inactive) | > 100 µM (inactive) | > 100 µM (inactive) | > 100 µM (inactive) |
| Cc1ccc(-c2cc[n+]3c(n2)oc2ccccc23)cc1 | 10.3 µM (inactive) | > 100 µM (inactive) | > 100 µM (inactive) | > 100 | 21.2 µM (inactive) | 28.2 µM (inactive) | – | 4.84 µM (inactive) | 43.9 µM (inactive) | 53.3 µM (inactive) | 16.3 µM (inactive) | – | 14.2 µM (inactive) | 24.7 µM (inactive) | 8.93 µM (inactive) | 26.8 µM (inactive) | 10.8 µM (inactive) | 5.98 µM (inactive) | 22.8 µM (inactive) |
| Cc1cccc(C)c1Nc1nc(C)c(C(=O)CC(=O)C(=O)Nc2c(C(C)C)cccc2C(C)C)s1 | – | 73.8 µM (inactive) | > 100 µM (inactive) | > 100 | > 100 µM (inactive) | > 100 µM (inactive) | > 100 µM (inactive) | > 100 µM (inactive) | > 100 µM (inactive) | > 100 µM (inactive) | > 100 µM (inactive) | > 100 µM (inactive) | 43.4 µM (inactive) | > 100 µM (inactive) | > 100 µM (inactive) | > 100 µM (inactive) | 72.9 µM (inactive) | > 100 µM (inactive) | > 100 µM (inactive) |
| CC(C)=CCN=C(N)N | > 100 µM (inactive) | > 100 µM (inactive) | > 100 µM (inactive) | > 100 | > 100 µM (inactive) | > 100 µM (inactive) | > 100 µM (inactive) | – | > 100 µM (inactive) | > 100 µM (inactive) | > 100 µM (inactive) | > 100 µM (inactive) | > 100 µM (inactive) | > 100 µM (inactive) | > 100 µM (inactive) | > 100 µM (inactive) | 51.2 µM (inactive) | > 100 µM (inactive) | > 100 µM (inactive) |
| CC1(C)CC[C@]2(C(=O)O)CC[C@]3(C)C(=CC[C@@H]4[C@@]5(C)CC[C@H](OC6OC(CO)C(O)C(O)C6O)C(C)(C)[C@@H]5CC[C@]43C)[C@@H]2C1 (stereo partly specified) | 2.22 µM (inactive) | 7.89 µM (inactive) | 1.7 µM (inactive) | 2.75 | 1.75 µM (inactive) | 1.31 µM (inactive) | 1.93 µM (inactive) | 1.42 µM (inactive) | 1.83 µM (inactive) | 1.68 µM (inactive) | 1.82 µM (inactive) | – | 1.68 µM (inactive) | 1.87 µM (inactive) | 1.82 µM (inactive) | 1.58 µM (inactive) | 1.85 µM (inactive) | 1.45 µM (inactive) | 1.71 µM (inactive) |
| COc1cc(OC)c(-c2oc3ccccc3c(=O)c2O)c(OC)c1 | 6.75 µM (inactive) | 1.77 µM (inactive) | > 100 µM (inactive) | 2.99 | 10.4 µM (inactive) | 1.67 µM (inactive) | 3.68 µM (inactive) | 2.7 µM (inactive) | > 41.3 µM (inactive) | 4.9 µM (inactive) | 4.16 µM (inactive) | > 100 µM (inactive) | 8.17 µM (inactive) | 0.889 µM (active) | 3.62 µM (inactive) | 4.37 µM (inactive) | 3.52 µM (inactive) | 2.75 µM (inactive) | – |
| O=C(NCP(=O)(O)O)c1cccnc1 [(NICOTINAMIDOMETHYL)PHOSPHONIC ACID] | > 100 µM (inactive) | > 100 µM (inactive) | > 100 µM (inactive) | > 100 | > 100 µM (inactive) | > 100 µM (inactive) | > 100 µM (inactive) | > 100 µM (inactive) | – | > 100 µM (inactive) | > 100 µM (inactive) | > 100 µM (inactive) | > 100 µM (inactive) | > 100 µM (inactive) | > 100 µM (inactive) | > 100 µM (inactive) | > 100 µM (inactive) | – | > 100 µM (inactive) |
